Measurements: PubChem BioAssay (NCI)
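Interpolation was linear, between the two tested concentrations surrounding the appropriate level; five concentrations were tested over 48 hours in 96-well plates. TGI: total growth inhibition.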

How the values were obtained:
Experiment in all cases: NCI-60 cell line screen, 48 h
NCI-H460 lung = system: NCI-H460 lung
A498 renal = system: A498 renal
EKVX NSCLC = system: EKVX NSCLC
SR leukemia = system: SR leukemia
HOP-62 NSCLC = system: HOP-62 NSCLC
HCC-2998 colon = system: HCC-2998 colon
PC-3 prostate = system: PC-3 prostate
SF-268 CNS = system: SF-268 CNS
CCRF-CEM leukemia = system: CCRF-CEM leukemia
UACC-257 melanoma = system: UACC-257 melanoma
CAKI-1 renal = system: CAKI-1 renal
RPMI-8226 leukemia = system: RPMI-8226 leukemia
MDA-MB-435 = system: MDA-MB-435
SK-MEL-5 melanoma = system: SK-MEL-5 melanoma
TK-10 renal = system: TK-10 renal
OVCAR-4 ovarian = system: OVCAR-4 ovarian
MOLT-4 leukemia = system: MOLT-4 leukemia
COLO 205 colon = system: COLO 205 colon
SK-MEL-28 melanoma = system: SK-MEL-28 melanoma
UACC-62 melanoma = system: UACC-62 melanoma
HL-60(TB) leukemia = system: HL-60(TB) leukemia
SNB-19 CNS = system: SNB-19 CNS
SW-620 colon = system: SW-620 colon
MALME-3M melanoma = system: MALME-3M melanoma
SF-295 CNS = system: SF-295 CNS
SN12C renal = system: SN12C renal
NCI-H522 lung = system: NCI-H522 lung
HOP-92 NSCLC = system: HOP-92 NSCLC
SK-MEL-2 melanoma = system: SK-MEL-2 melanoma
DU-145 prostate = system: DU-145 prostate
K-562 leukemia = system: K-562 leukemia
MCF7 breast = system: MCF7 breast
KM12 colon = system: KM12 colon
786-0 renal = system: 786-0 renal
MDA-N = system: MDA-N
OVCAR-5 ovarian = system: OVCAR-5 ovarian
SK-OV-3 ovarian = system: SK-OV-3 ovarian
NCI-H226 lung = system: NCI-H226 lung
ACHN renal = system: ACHN renal
RXF 393 renal = system: RXF 393 renal
HS 578T breast = system: HS 578T breast
HT29 colon = system: HT29 colon
MDA-MB-231 breast = system: MDA-MB-231 breast
U251 CNS = system: U251 CNS
LOX IMVI melanoma = system: LOX IMVI melanoma
OVCAR-3 ovarian = system: OVCAR-3 ovarian
HCT-116 colon = system: HCT-116 colon
HCT-15 colon = system: HCT-15 colon
IGROV1 ovarian = system: IGROV1 ovarian
M14 melanoma = system: M14 melanoma
T-47D breast = system: T-47D breast
NCI/ADR-RES ovarian = system: NCI/ADR-RES ovarian
OVCAR-8 ovarian = system: OVCAR-8 ovarian
A549 NSCLC = system: A549 NSCLC
SNB-75 CNS = system: SNB-75 CNS

Measured: TGI

CCOP(=O)(Cc1nc(C#N)c(N)o1)OCC
not listed: M14 melanoma | T-47D breast | NCI/ADR-RES ovarian | OVCAR-8 ovarian | A549 NSCLC | SNB-75 CNS
> 100 µM: all other assays above

CC(C)c1cc(C(C)C)c(B(c2ccccc2)c2ccccc2)c(C(C)C)c1B(c1ccccc1)c1ccccc1
not listed: A498 renal | HCC-2998 colon | CCRF-CEM leukemia | CAKI-1 renal | RPMI-8226 leukemia | MDA-MB-435 | TK-10 renal | SK-MEL-28 melanoma | HL-60(TB) leukemia | SNB-19 CNS | K-562 leukemia | MCF7 breast | KM12 colon | 786-0 renal | OVCAR-5 ovarian | NCI-H226 lung | RXF 393 renal | U251 CNS
> 100 µM: all other assays above
